Results: patent publication US7569526B2, “Anti-oxidants in soluble oil base for metal working fluids” (Crompton Corporation, priority 2003, dated 2009)
Several values for one entry are separate records, joined by “and”; a condition that tells them apart may be missing. Equal entries are not always repeated.

Legend:
[1] = Modified ASTM D943 oxidation (95 C.), constant time; assay type: physicochemical; conditions: aging time 312 hrs
Description: 1. Fill the oxidation test tube with 300 ml of the emulsion sample provided.
2. When the first sample containing no antioxidant or biocide reaches a TAN (total acid number) of 2.0 mg/g KOH, stop all of the oxidations at that same time and measure the TAN. During the course of the testing it may be necessary to add a small amount of defoamer (1 drop of Foam Ban MS-575 from Ultra Additives) to prevent excessive foaming and loss of sample out of the top of the test apparatus. 3. Unless noted above the other test details are identical to ASTM D943
Accordingly, additional thermal stress was applied to accentuate differences in antioxidant performance. The test chosen to do this was a modified ASTM D943 run at 95° C., which it was expected would provide some oxidative breakdown of the metalworking fluid. The test was modified so that after the uninhibited sample had reached a TAN value of 2 mg KOH/g all of the oxidations were stopped so that the time of the oxidation would be a constant (typically the test is run to a constant TAN value and the time is allowed to vary).

[2] = Modified ASTM D3946 bottle test, sediment and pH (Examples 25-34); assay type: physicochemical; conditions: 25° C.; filtered at end of test
Description: (§1) A modified ASTM D3946 method was run according to the following procedure:
(§2) 1. A 1-quart straight side jar was filled with 500 mL of emulsion. (Note: the straight sides of the jar allow culture plates to be immersed in the emulsion in situ. No steel chips were added.)
(§3) 2. While immersed in a 25° C. water bath, the jars were sparged with air using a disposable pipette at a flow rate of approximately 500 mL/min. (Note: this may need to be adjusted depending on the air supply and the amount of foaming observed).
(§4) 3. The pH was measured using standard pH paper or pH meter and bacteria/fungus counts were measured at one and two week intervals using culture plates (SaniCheck BF culture plates from Biosan Laboratories, Inc. were use in this study, but there are many suppliers available). Although the manufacturers protocol called for incubation between 24 and 36 hours, the bacteria counts were measured after 24, 30, and 48-hour incubations at 28° C. The bacterial onset was measured as the number of weeks necessary to observe at least a 10^3 bacteria count/mL on the culture plate (threshold value of this type of plate). Optionally, the average bacterial count can be calculated over the length of the test period.
4. At the end of the test, the solutions were filtered through medium filter paper (Whatman #2) and the amount of sediment recovered was weighed.
(§5) 5. Unless noted above, the other test details are identical to ASTM D3946.
In this case, after 22 weeks the pH broke and dropped from 9.0 to 7.0. In all other samples, the pH was measured between 8.5 and 9.0, without significant change over the test period.

bacteria = assay: Modified ASTM D3946 bottle test, bacteria count and onset (Examples 25-34); assay type: cell-based; conditions: 30 hours of incubation
Description: as §1, §2, §3, §4, §5
The biological activity was evaluated using a Sanicheck BF Conversion Chart. […]

[3] = RBOT, standard ASTM D2272 (150 C.), bomb life; assay type: physicochemical
From the text: (§6) The antioxidants used in this study were received from internal and external commercial sources without alteration. The sample of butylated DPA was from a preparation of Naugalube 640 in which the sample was enriched in butylated DPA.
The ASTM D2272 method was run according to the standard procedure using a 10/90 (oil/water) emulsion as a test sample.

[4] = TOST, standard ASTM D943 (95° C.), acid number; assay type: physicochemical; conditions: 0.5% Triadine-3 in Hyprene H100; two separate runs; baseline
From the text: as §6
Combining the results of Examples 11-24 with those of Examples 1-10, the synergies involved in the oxidation testing used can be seen. […] Hyprene H100 is a 100 SUS naphthenic oil. Although there is a large variation in the baseline, the general antioxidant chemistry trends (phenolic vs. aminic) were consistent.

[5] = Modified ASTM D2272 (150 C.), constant time; assay type: physicochemical; conditions: after oxidation
Description: 1. Charge the vessel with 50 grams of the emulsion sample provided.
3. Unless noted above, the other test details are identical to ASTM D2272.
With the success of the 95° C. modified ASTM, thermal breakdown for the metalworking fluids at even higher temperature was tested. The test chosen was a modified ASTM D2272 (RBOT) which is run at 150° C. in a sealed bomb, which should provide sufficient stress to provide significant oxidative breakdown of the metalworking fluid. The test was modified so that after the inhibited sample had reduced pressure by 175 psi, all of the oxidations were stopped so that the time of the oxidation would be a constant (typically the test is run to a constant pressure drop value and the time is allowed to vary). […] Additionally, the pH of all samples dropped from the initial 9.0 to 3.0, with the exception of the sample of Naugalube 640, which dropped to 7.0.

mono-, di-, and tri-, nonylated diphenylamine [Naugalube 438L]
Cream (%) [1]: no significant cream

CC(C)(C)c1cc(CCC(=O)OCCSCCOC(=O)CCc2cc(C(C)(C)C)c(O)c(C(C)(C)C)c2)cc(C(C)(C)C)c1O [AX 15, Thiodiethylene-bis(3,5-di-t-butyl-4-hydroxyhydrocinnamate)]
Sediment [2]: reduced the sediment

Cc1cc(C(C)(C)C)c(O)c(C(C)(C)C)c1 [BHT, 2,6-di-t-butyl hydroxytoluene]
synergy of antioxidant and biocide on onset time (bacteria): weakest | Sediment [2]: antagonistically increased the sediment in combination with biocide

octylated phenyl-α-naphthylamine [Naugalube APAN]
Cream (%) [1]: no significant cream

OCCN1CN(CCO)CN(CCO)C1 [Triadine 3, 1,3,5-tris(hydroxyethyl)-s-triazine]
Bomb Life ([3]; 0.5% Triadine-3 in Hyprene H100, two separate runs, baseline): 35 min and 37 min | Oxidation Lifetime [4]: 492 h and 836 h

butylated octylated diphenylamine [Naugalube 640]
Bomb Life (min) ([3]; 150 C., Table 1 blends): terminated before a break point was ever observed | Cream (%) [5]: < 1.0% | pH ([5]; initial 9.0): 7.0 | synergy of antioxidant and biocide on onset time (bacteria): strongest | Sediment [2]: reduced the sediment

butylated octylated diphenylamine [butylated DPA]
Sediment [2]: reduced the sediment
